The text below walks through data of EP0459561B1, “Dioxo-tetrahydroquinoline derivatives” (MERCK SHARP & DOHME LTD., priority 1990, dated 1991).

SMILES strings stand for the structures.

The experiment concerns the target AMPA receptors. The experiment can be described thus: Displacement of 3H-AMPA binding, rat forebrain membranes. The settings on record: read-out: IC₅₀ (displacement of ³H-AMPA binding). On the procedure: The ability of test compounds to displace ³H-AMPA binding to rat forebrain membranes was determined by the method of Honore et al., Neurosci. Lett., 1985, 54, 27.
Background: Loss of bound radioactivity is the signal in a displacement assay; it reports binding, not function.

Take `CCOC(=O)C1C(=O)Nc2cc([N+](=O)[O-])c([N+](=O)[O-])cc2C1=O` (stereo not shown) [Example 50, Ethyl 6,7-Dinitro-2,4-dioxo-3-(1,2,3,4-tetrahydroquinoline)carboxylate]: the IC50 was < 50 µM.
